The source of these data is US20090253709A1 (NATIONAL DEFENSE MEDICAL CENTER, priority 2008, published 2009).

Usually viability stands for the share of living cells, or the viability signal relative to a control.

One data set has as its system H1299. Put plainly: MTT assay in H1299 cells. The class given is cell-based. The procedure: H1299 is a non-small cell lung cancer cell line with telomerase activity. The cell extract of H1299 cell lines can be used for selecting the telomerase activity inhibitors in vitro and the telomerase activity-inhibited substances in vivo. H1299 cell line was incubated with RPMI 1640 medium supplemented with 10% of fetal bovine serum (FBS). A total of 2×10^3 […] cells were seeded in the 96-well cell culture plate, and incubated with DMEM (GIBCO®)/glucose mixture and Medium 199 (GIBCO®)/10% FBS/1 mM sodium pyruvate (GIBCO®)/4 mM L-glutamine (GIBCO®) mixture at a ratio of 4:1 at 37° C. for 24 hours. […] After 48 hours of drug treatment, the cultured medium were collected for performing the analysis of SEAP activity. The cells were washed with 1×PBS once immediately, and the MTT assay was performed to compare the compounds with the relative toxicity or the influence to the proliferation and activity. Mitochondria is the place for cellular respiration, and there are many reductive reactions catalyzed by dehydrogenases. MTT is a water-soluble yellow compound, and the […] will be formed after reduction. This crystal can be dissolved in the organic solvent, and has high absorbance at the wavelength of 570 nm. The higher cellular activity or more cell numbers, the more generated crystal violets. Therefore, the cellular activity and cell number can be obtained by the MTT assay. MTT solution was prepared by dissolving MTT powder in PBS solution to achieve 5 mg/ml, filtrated and stored at 4° C. Lysis buffer contained 20% (w/v) of SDS in 50% of N,N-dimethylformamide (DMF, Riedel-deHaën). After the cells were incubated in the 96-well culture plate, the original medium was discarded, 100 μl of the fresh serum-free medium per well and 25 μl of MTT solution per well were added in respectively, and the cells were further incubated in the CO2 incubator at 37° C. for 4 hours. Then, 100 μl of lysis buffer per well was added in and incubated overnight in the CO2 incubator at 37° C. The absorbance at 570 nm was determined by the ELISA reader. The selection of telomerase inhibitors of the anthraquinone compounds provided in the present invention was performed by the […]-driven SEAP system. SEAP is the communication gene in this drug selection model. The SEAP inhibition was shown as follows. […] Subsequently, the linear slope of absorbance to the measuring time was calculated, and the variance of absorbance at 405 nm per minute was represented and compared with the SEAP-producing result of drug-untreated H1299 cells. In addition, the influence of the cell-treated drug solution to the cellular proliferation and the drug toxicity to the cells were considered, and the cellular growth was evaluated by the MTT assay. The drug-treated cells were analyzed by the SEAP assay and the data analysis of MTT assay at the same time. Both results were compared so as to delete the influence of cell number or the activity to SEAP, and the dose-dependent phenomenon could be anticipated in the range of drug concentration designed by the laboratory. […] Since the chemically-synthetic drugs have colors thereon, the SEAP value of drug-treatment without cells was also determined to be the background value which was deducted while treating with the drugs. The candidate drug for inhibiting telomerase on the hTERT gene expression level was evaluated and anticipated.
(In general: Tetrazolium dyes change colour on reduction, which living cells bring about.)

In the next data set the test system is BJ1. Put plainly: MTT assay in BJ1 cells. The class given is cell-based. The procedure:
A total of 2×10^3 […] cells were seeded in the 96-well cell culture plate, and incubated with DMEM (GIBCO®)/glucose mixture and Medium 199 (GIBCO®)/10% FBS/1 mM sodium pyruvate (GIBCO®)/4 mM L-glutamine (GIBCO®) mixture at a ratio of 4:1 at 37° C. for 24 hours. […] After 48 hours of drug treatment, the cultured medium were collected for performing the analysis of SEAP activity. The cells were washed with 1×PBS once immediately, and the MTT assay was performed to compare the compounds with the relative toxicity or the influence to the proliferation and activity. Mitochondria is the place for cellular respiration, and there are many reductive reactions catalyzed by dehydrogenases. MTT is a water-soluble yellow compound, and the […] will be formed after reduction. This crystal can be dissolved in the organic solvent, and has high absorbance at the wavelength of 570 nm. The higher cellular activity or more cell numbers, the more generated crystal violets. Therefore, the cellular activity and cell number can be obtained by the MTT assay. MTT solution was prepared by dissolving MTT powder in PBS solution to achieve 5 mg/ml, filtrated and stored at 4° C. Lysis buffer contained 20% (w/v) of SDS in 50% of N,N-dimethylformamide (DMF, Riedel-deHaën). After the cells were incubated in the 96-well culture plate, the original medium was discarded, 100 μl of the fresh serum-free medium per well and 25 μl of MTT solution per well were added in respectively, and the cells were further incubated in the CO2 incubator at 37° C. for 4 hours. Then, 100 μl of lysis buffer per well was added in and incubated overnight in the CO2 incubator at 37° C. The absorbance at 570 nm was determined by the ELISA reader.

Regarding `O=C1c2ccc(NC(=O)C3CCCC3)cc2C(=O)c2cc(NC(=O)C3CCCC3)ccc21` [Compound 33, 2,7-Bis(cyclopentanecarbonamido)anthraquinone], the viability stood at 91 ± 12% with H1299 (1 µM); 77 ± 6% in the data set with H1299 (10 µM); 42 ± 12% with H1299 (100 µM); 77 ± 1% in the data set with BJ1 (1 µM); 68 ± 1% with BJ1 (10 µM); 58 ± 1% in the data set on BJ1 (100 µM).
